Values of other authors in patent US20230355898A1, “NEBULIZER AND NEBULIZED ANTI-VIRALS” (priority 2020, published 2023).
pEC50, pIC50: −log10 of the molar value. Where a name gives a salt, the structure may show the parent alone. Read-outs that look alike come from different tables or passages of the source.

What was measured:
[1] = rat, in vivo
[2] = tested on: SARS-CoV-2; settings: for SARS-CoV-2 viral load measured by RT-qPCR of the viral N transcript: COVID-19 hamster model, Intraperitoneal (IP) administration; for reduction in viral load or change in disease progression: Rosenke; for prophylactic efficacy in reducing SARS-CoV-2 infection: hamsters, 50 mg/kg SC QD, virus intranasal or by association with nasally infected animals
[3] = tested on: SARS-CoV-2; settings: Rhesus Macaque, Rosenke, 2020
[4] = tested on: SARS-CoV-2 pseudoparticulates; settings: drug at human blood maximum concentrations in fluid and airway channels; Si, 2020
[5] = free base; PubChem
[6] = tested on: SARS-CoV-2 pseudoparticulates (pp); settings: Huh-7, SARS-CoV-2pp, concurrent treatment, Si, 2020
[7] = not given; remark: listed apart in the source
[8] = tested on: SARS-CoV-2; settings: Vero 6, SARS-Cov-2, pretreatment; Si, 2020; read-out: Inhibition of infection IC50
[9] = tested on: SARS-CoV-2; settings: read-out: Viral Replication EC50 @ 48 hr, Vero 6, Concurrent, Wang, 2020
[10] = four-route infection on day 0, 6 mg/kg PO 12 18, 36, 60, 84 and 108 hours post-infection (therapeutic)
[11] = four-route infection on day 0, 6 mg/kg PO on days −9, −2, and 5 (prophylactic)

CCN(CCO)CCCC(C)Nc1ccnc2cc(Cl)ccc12 (stereo not drawn) [HCQ sulfate, hydroxychloroquine sulfate]
lung drug concentrations, IT versus IV solution [1]: higher lung drug concentrations | clinical endpoints for asthma (Phase II) (nebulized): did not meet its clinical endpoints | tolerability of pulmonary doses (nebulized hypertonic 100 mg/mL, up to 20 mg QD): well tolerated with minimal side effects | SARS-CoV-2 viral load measured by RT-qPCR of the viral N transcript ([2]; Si, 2020): ineffective | reduction in viral load on day 5 ([2]; Hamster, exposure to nasally infected animals on day 2, 600 mg/kg IP day 1 and 50 mg/kg IP days 2, 3, 4, 5, Kapstein, 2020): ineffective | reduction in viral load or change in disease progression ([2]; Hamster, nasal infection on day 1, 50 mg/kg IP 1 hr after infection and days 2, 3 (therapeutic), 2020, 50 mg/kg): ineffective | reduction in viral load or change in disease progression ([2]; Hamster, nasal infection on day 2, 50 mg/kg IP 1 day before infection and days 2, 3, 4 (prophylactic), 2020, 50 mg/kg): ineffective | reduction in viral load on day 4 ([2]; Hamster, nasal infection on day 2, 50 mg/kg IP 1 day before infection and days 2, 3, 4, Kapstein, 2020, 50 mg/kg): ineffective | effect upon viral loads at days 3, 5, or 7, or disease pathology through post-mortem on day 7 [3, 10]: ineffective | effect upon viral loads at days 3, 5, or 7, or disease pathology through post-mortem on day 7 [3, 11]: ineffective | Inhibition of SARS-CoV-2pp entry into LAC epithelial cells (qPCR of viral mRNA) [4]: lack of efficacy

CCN(CCO)CCCC(C)Nc1ccnc2cc(Cl)ccc12 (stereo not drawn) [HCQ, hydroxychloroquine]
Log P [5]: 3.9 | Inhibition of viral entry: % entry @ 1 μM [6]: 30% entry @ 1 μM | Inhibition of viral entry: % entry @ 5 μM [6]: 50% entry @ 5 μM; | effect upon viral loads at days 3, 5, or 7, or disease pathology through post-mortem on day 7 [3, 10]: No effect upon viral | effect upon viral loads at days 3, 5, or 7, or disease pathology through post-mortem on day 7 [3, 11]: No effect upon viral | T1/2 ([7]; human, in vivo, iv): 26.2 days | V2 ([7]; in vivo, iv): 26,711 L | Inhibition of SARS-CoV-2pp entry into LAC epithelial cells (qPCR of viral mRNA) [4]: repeatedly failed

CCN(CC)CCCC(C)Nc1ccnc2cc(Cl)ccc12.O=P(O)(O)O.O=P(O)(O)O (stereo not drawn) [CQ phosphate]
Inhibition of SARS-CoV-2pp entry into LAC epithelial cells (qPCR of viral mRNA) [4]: lack of efficacy

CCNCc1cc(Nc2ccnc3cc(Cl)ccc23)ccc1O [DEAQ, desethylamodiaquine]
Log P [5]: 2.3 | pIC50 [8]: 5.07

CCN(CC)Cc1cc(Nc2ccnc3cc(Cl)ccc23)ccc1O [ADQ, amodiaquine]
reduction in viral load on day 4 ([2]; Hamster, exposure of healthy animals to nasally infected animals on day 2, 50 mg/kg SC day 1 and days 2, 3, 4, Si, 2020): 90% reduction in | reduction in viral load on day 4 ([2]; Hamster, nasal infection on day 2, 50 mg/kg SC 1 day before infection and days 2, 3, 4, Si, 2020): 70% reduction in | prophylactic efficacy in reducing SARS-CoV-2 infection [2]: exhibit prophylactic efficacy | Inhibition of viral entry: % entry @ 1 μM [6]: 10% entry @1 μM | Inhibition of viral entry: % entry @ 5 μM [6]: 30% entry @ 5 μM; | T1/2 ([7]; human, in vivo, iv): 0.083 days | V2 ([7]; in vivo, iv): 39 L | pIC50 [8]: 4.99

CCN(CC)Cc1cc(Nc2ccnc3cc(Cl)ccc23)ccc1O.Cl.Cl [ADQ hydrochloride]
SARS-CoV-2 viral load measured by RT-qPCR of the viral N transcript ([2]; Si, 2020): able to reduce | prophylactic efficacy in reducing SARS-CoV-2 infection [2]: effective | Inhibition of SARS-CoV-2pp entry into LAC epithelial cells (qPCR of viral mRNA) [4]: inhibited

CCN(CC)CCCC(C)Nc1ccnc2cc(Cl)ccc12 (stereo not drawn) [CQ, chloroquine]
Inhibition of viral entry: % entry @ 1 μM [6]: 10% entry @ 1 μM | Inhibition of viral entry: % entry @ 5 μM [6]: 50% entry @ 5 μM; | T1/2 ([7]; IV in humans): 23.7 days | V2 ([7]; IV in humans): 7,973 L | Inhibition of SARS-CoV-2pp entry into LAC epithelial cells (qPCR of viral mRNA) [4]: lack of efficacy | pEC50 [9]: 5.95
